Measured values reported in patent publication US20250197372A1 (priority 2020, published 2025).

Tests used:
[1] = target: T1, recombinant alpha-glucosidase I (human full-length glucosidase I, Glu 1) (Homo sapiens, UniProt Q13724); assay: Alpha-glucosidase I assay (Amplex Red glucose detection, synthetic trisaccharide substrate); format: biochemical; details: Glucosidase 1; read-out: Glu 1 IC50
T1 construct: 6-His (C); made in house; host or cells: HEK-293T cells transduced with BacMam virus (virus raised in Sf9)
T1 sequence (Q13724 1-837): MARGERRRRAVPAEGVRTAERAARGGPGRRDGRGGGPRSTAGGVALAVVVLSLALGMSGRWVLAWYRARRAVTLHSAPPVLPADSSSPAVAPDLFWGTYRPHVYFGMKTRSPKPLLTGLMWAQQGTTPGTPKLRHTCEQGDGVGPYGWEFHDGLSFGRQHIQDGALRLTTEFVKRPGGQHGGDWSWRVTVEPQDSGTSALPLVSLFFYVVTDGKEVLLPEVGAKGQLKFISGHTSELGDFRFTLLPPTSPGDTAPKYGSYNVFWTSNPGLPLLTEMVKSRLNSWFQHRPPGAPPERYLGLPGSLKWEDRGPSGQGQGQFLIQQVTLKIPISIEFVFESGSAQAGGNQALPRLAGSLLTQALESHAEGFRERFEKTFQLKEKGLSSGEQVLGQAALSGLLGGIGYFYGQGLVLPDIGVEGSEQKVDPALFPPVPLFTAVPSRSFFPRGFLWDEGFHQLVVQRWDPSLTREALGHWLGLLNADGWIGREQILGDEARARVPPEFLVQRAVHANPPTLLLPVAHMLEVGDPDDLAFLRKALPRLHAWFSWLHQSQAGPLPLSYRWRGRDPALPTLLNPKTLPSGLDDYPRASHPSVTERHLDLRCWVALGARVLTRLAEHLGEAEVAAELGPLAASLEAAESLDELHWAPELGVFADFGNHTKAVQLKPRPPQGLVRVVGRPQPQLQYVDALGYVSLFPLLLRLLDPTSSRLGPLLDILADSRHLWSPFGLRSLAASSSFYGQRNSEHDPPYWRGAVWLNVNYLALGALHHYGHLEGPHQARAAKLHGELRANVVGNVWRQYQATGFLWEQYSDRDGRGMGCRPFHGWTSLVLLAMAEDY
In short: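 Human full-length glucosidase I, His-tagged, […] and Ni-purified. Enzyme preincubated with compound dilutions 60 min at 37° C, then synthetic trisaccharide substrate 90 min at 37° C; stopped with 1.5M Tris pH 8.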

[2] = target: rat maltase (partially purified alpha-glucosidase from intestinal rat powder); assay: Intestinal alpha-glucosidase assay, maltose substrate (Glucose GO Kit); format: biochemical
In short: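 First step: 60 min, 37 °C, compound with partially purified rat intestinal alpha-glucosidase. Next, maltose or sucrose for 30 min at 37 °C, ended at 90 °C for 5 min. Glucose quantified enzymatically; concentration–inhibition data fitted 4-PL for IC50.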

SMILES | IC50 [1] [nM] | IC50 [2] [nM]
O=[N+]([O-])c1cc(Br)ccc1NCc1cccc(CN2C[C@H](O)[C@@H](O)[C@H](O)[C@H]2CO)c1 [Compound 1029, (2R,3R,4R,5S)-1-[(3-{[(4-bromo-2-nitrophenyl)-amino]methyl}phenyl)methyl]-2-(hydroxymethyl)piperidine-3,4,5-triol] | 8 | 10
Cc1cc(NCc2cnc(CN3C[C@H](O)[C@@H](O)[C@H](O)[C@H]3CO)cn2)cc(-c2ccc[nH]2)c1 [Compound 1330, (2R,3R,4R,5S)-2-(hydroxymethyl)-1-{[5-({[3-methyl-5-(1H-pyrrol-2-yl)phenyl]amino}methyl)pyrazin-2-yl]methyl}piperidine-3,4,5-triol] | 1420 | 577
[N-]=[N+]=Nc1ccc(NCCN(CCC(N)=O)CCN2C[C@H](O)[C@@H](O)[C@H](O)[C@H]2CO)c([N+](=O)[O-])c1 [Compound 1235] | 8110 | 7160
COc1ccc(-c2ccc(CN3C[C@H](O)[C@@H](O)[C@H](O)[C@H]3CO)cc2)cc1 [Compound 1306, (2R,3R,4R,5S)-2-(hydroxymethyl)-1-({4′-methoxy-[1,1′-biphenyl]-4-yl}methyl)piperidine-3,4,5-triol] | 745 | < 10
Nc1ccc(NCCCCCCCCN2C[C@H](O)[C@@H](O)[C@H](O)[C@H]2CO)c([N+](=O)[O-])c1Cl [Compound 1277, (2R,3R,4R,5S)-1-{8-[(4-amino-3-chloro-2-nitrophenyl)amino]octyl} 2-(hydroxymethyl)piperidine-3,4,5-triol] | 166 | 52
Cc1cc(NCc2cccc(CN3C[C@H](O)[C@@H](O)[C@H](O)[C@H]3CO)n2)cc(-c2ncccn2)c1 [Compound 1322, (2R,3R,4R,5S)-2-(hydroxymethyl)-1-{[6-({[3-methyl-5-(pyrimidin-2-yl)phenyl]amino}methyl)pyridin-2-yl]methyl}piperidine-3,4,5-triol] | 3120 | 388
Cc1cc(Br)cc(NCc2cccc(CN3C[C@H](O)[C@@H](O)[C@H](O)[C@H]3CO)c2)c1 [Compound 1021, (2R,3R,4R,5S)-1-[(3-{[(3-bromo-5-methylphenyl)amino]methyl}phenyl)methyl]-2-(hydroxymethyl)piperidine-3,4,5-triol] | 6 | 8
Cc1cc(NCc2cccc(CN3C[C@H](O)[C@@H](O)[C@H](O)[C@H]3CO)c2)cc(N2CCOCC2)c1 [Compound 1031, (2R,3R,4R,5S)-2-(hydroxymethyl)-1-{[3-({[3-methyl-5-(morpholin-4-yl)phenyl]amino}methyl)phenyl]methyl}piperidine-3,4,5-triol] | 93 | 174
CN(Cc1cccc(CN2C[C@H](O)[C@@H](O)[C@H](O)[C@H]2CO)c1)c1ccc(CN2CCCO2)cc1[N+](=O)[O-] [Compound 1020] | 118 | 44
NC(=O)CCN(CCNc1ccc(-c2ncccn2)cc1[N+](=O)[O-])CCN1C[C@H](O)[C@@H](O)[C@H](O)[C@H]1CO [Compound 1226, 3-[(2-{[2-nitro-4-(pyrimidin-2-yl)phenyl]amino}ethyl)({2-[(2R,3R,4R,5S)-3,4,5-trihydroxy-2-(hydroxymethyl)piperidin-1-yl]ethyl})amino]propanamide] | 9530 | 4630
[N-]=[N+]=Nc1ccc(NCCn2cc(CCN3C[C@H](O)[C@@H](O)[C@H](O)[C@H]3CO)nn2)c([N+](=O)[O-])c1 [Compound 1272, (2R,3R,4R,5S)-1-[2-(1-{2-[(4-azido-2-nitrophenyl)amino]ethyl}-1H-1,2,3-triazol-4-yl)ethyl]-2-(hydroxymethyl)piperidine-3,4,5-triol] | 1800 | 239
Cc1cc(NCc2cccc(CN3C[C@H](O)[C@@H](O)[C@H](O)[C@H]3CO)n2)cc(N2CCOCC2)c1 [Compound 1336, (2R,3R,4R,5S)-2-(hydroxymethyl)-1-{[6-({[3-methyl-5-(morpholin-4-yl)phenyl]amino}methyl)pyridin-2-yl]methyl}piperidine-3,4,5-triol] | 30300 | 9990
Cc1cc(NCc2ccc(CN3C[C@H](O)[C@@H](O)[C@H](O)[C@H]3CO)cc2)cc(-c2ccco2)c1 [Compound 1317, (2R,3R,4R,5S)-1-{[4-({[3-(furan-2-yl)-5-methylphenyl]amino}methyl)phenyl]methyl}-2-(hydroxymethyl)piperidine-3,4,5-triol] | < 1 | < 1
OC[C@@H]1[C@@H](O)[C@H](O)[C@@H](O)CN1Cc1ccc(CNc2ccc(Br)cc2)cc1 [Compound 1028, (2R,3R,4R,5S)-1-[(4-{[(4-bromophenyl)amino]methyl}phenyl)methyl]-2-(hydroxymethyl)piperidine-3,4,5-triol] | < 1 | 11
CC#Cc1ccc(NCCCCCCN2C[C@H](O)[C@@H](O)[C@H](O)[C@H]2CO)c([N+](=O)[O-])c1 [Compound 1290, (2R,3R,4R,5S)-2-(hydroxymethyl)-1-(6-{[2-nitro-4-(prop-1-yn-1-yl)phenyl]amino}hexyl)piperidine-3,4,5-triol] | 36 | < 10
[N-]=[N+]=Nc1ccc(NCCC(O)C(O)CCN2C[C@H](O)[C@@H](O)[C@H](O)[C@H]2CO)c([N+](=O)[O-])c1 (stereo partly drawn) [Compound 1270, (2R,3R,4R,5S)-1-{6-[(4-azido-2-nitrophenyl)amino]-3,4-dihydroxy-hexyl}-2-(hydroxymethyl)piperidine-3,4,5-triol] | 358 | 57
N#Cc1cc(-c2ncccn2)ccc1NCCCCCCN1C[C@H](O)[C@@H](O)[C@H](O)[C@H]1CO [Compound 1256, 5-(pyrimidin-2-yl)-2-({6-[(2R,3R,4R,5S)-3,4,5-trihydroxy-2-(hydroxymethyl)piperidin-1-yl]hexyl}amino)benzonitrile] | 90 | 10
N#Cc1cc(Br)cc(NCc2cccc(CN3C[C@H](O)[C@@H](O)[C@H](O)[C@H]3CO)c2)c1 [Compound 1023, 3-bromo-5-{[(3-{[(2R,3R,4R,5S)-3,4,5-trihydroxy-2-(hydroxymethyl)piperidin-1-yl]methyl}phenyl)methyl]amino}benzonitrile] | 15 | 30
OC[C@@H]1[C@@H](O)[C@H](O)[C@@H](O)CN1CCCCCCNc1cc(Cl)cc(-c2ncco2)c1 [Compound 1211, (2R,3R,4R,5S)-1-(6-{[3-chloro-5-(1,3-oxazol-2-yl)phenyl]amino}hexyl)-2-(hydroxymethyl)piperidine-3,4,5-triol] | 112 | 1
CS(=O)(=O)c1cc(NCc2cccc(CN3C[C@H](O)[C@@H](O)[C@H](O)[C@H]3CO)c2)cc(N2CCOCC2)c1 [Compound 1036, (2R,3R,4R,5S)-2-(hydroxymethyl)-1-{[3-({[3-methanesulfonyl-5-(morpholin-4-yl)phenyl]amino}methyl)phenyl]methyl}piperidine-3,4,5-triol] | 30 | 77
CS(C)=NS(=O)(=O)c1cc(-c2ncccn2)ccc1NCCCCCCN1C[C@H](O)[C@@H](O)[C@H](O)[C@H]1CO [Compound 1247, N-(dimethyl-2-sulfanylidene)-5-(pyrimidin-2-yl)-2-({6-[(2R,3R,4R,5S)-3,4,5-trihydroxy-2-(hydroxymethyl)piperidin-1-yl]hexyl}amino)benzene-1-sulfonamide] | 493 | 18
OC[C@@H]1[C@@H](O)[C@H](O)[C@@H](O)CN1CCCCCCNc1ccc(-c2ncccn2)cc1Cl [Compound 1228, (2R,3R,4R,5S)-1-(6-{[2-chloro-4-(pyrimidin-2-yl)phenyl]amino}hexyl)-2-(hydroxymethyl)piperidine-3,4,5-triol] | 19 | 1
OC[C@@H]1[C@@H](O)[C@H](O)[C@@H](O)CN1CCCCCCNc1cc(Cl)cc(-c2ncccn2)c1 [Compound 1212, (2R,3R,4R,5S)-1-(6-{[3-chloro-5-(pyrimidin-2-yl)phenyl]amino}hexyl)-2-(hydroxymethyl)piperidine-3,4,5-triol] | 105 | 2
Cc1cc(NCc2cccc(CN3C[C@H](O)[C@@H](O)[C@H](O)[C@H]3CO)c2)cc(C2=COCCO2)c1 [Compound 1032, (2R,3R,4R,5S)-1-{[3-({[3-(5,6-dihydro-1,4-dioxin-2-yl)-5-methylphenyl]amino}methyl)phenyl]methyl}-2-(hydroxymethyl)piperidine-3,4,5-triol] | 16 | 73
